# Tests used:
# HIV-1 RT = target: T1, HIV-1 RT (Human immunodeficiency virus type 1 group M subtype B, UniProt P04585); test: HIV-1 reverse transcriptase assay; assay type: biochemical
# T1 construct: HSV-1 DNA Polymerase and HIV-1 Reverse Transcriptase Assay
# Method: (§1) The reaction mixture (40 μl) for the HSV-1 DNA polymerase and HIV-1 RT assays contained 4 μl Premix (200 mM Tris.HCl, pH 7.5; 2 mM DTT; 30 mM MgCl2), 4 μl BSA (5 mg/ml), 1.6 μl activated calf thymus DNA (1.25 mg/ml), 0.8 μl dCTP (5 mM), 0.8 μl dTTP (5 mM), 0.8 μl dGTP (5 mM), 2 μl radiolabeled [^3H]dATP (1 mCi/ml) (3.3 μM), 18 μl H2O and 4 μl tenofovir-DP at different concentrations (i.e. 200, 20, 2, 0.2 μM). The reaction was started by the addition of 4 μl recombinant HSV-1 DNA polymerase (kindly provided by M. W. Wathen (Pfizer, Kalamazoo, Mich.)) or recombinant HIV-1 RT (in 20 mM Tris.HCl, pH 8.0; 1 mM DTT; 0.1 mM EDTA; 0.2 M NaCl; 40% glycerol), and the reaction mixture was incubated for 60 min (HSV-1 DNA polymerase) or 30 min (HIV-1 RT) at 37° C. Then, 1 ml ice-cold 5% TCA in 0.02 M Na4P2O7.10H2O was added to terminate the polymerisation reaction, after which the acid-insoluble precipitate (radiolabeled DNA) was captured onto Whatman glass fiber filters type GF/C (GE Healthcare UK Limited, Buckinghamshire, UK) and further washed with 5% TCA and ethanol to remove free radiolabeled dATP. Radioactivity was determined in a Perkin Elmer Tri-Carb 2810 TR liquid scintillation counter.
# HSV-1 DNA polymerase = target: T2, HSV-1 DNA polymerase (Human herpesvirus 1, UniProt P04293); test: HSV-1 DNA polymerase assay; assay type: biochemical; settings: activated calf thymus DNA primer/template; [2,8-3H]dATP competing substrate
# T2 construct: gift of M. W. Wathen (Pfizer, Kalamazoo, Mich.)
# T2 sequence (P04293 whole entry): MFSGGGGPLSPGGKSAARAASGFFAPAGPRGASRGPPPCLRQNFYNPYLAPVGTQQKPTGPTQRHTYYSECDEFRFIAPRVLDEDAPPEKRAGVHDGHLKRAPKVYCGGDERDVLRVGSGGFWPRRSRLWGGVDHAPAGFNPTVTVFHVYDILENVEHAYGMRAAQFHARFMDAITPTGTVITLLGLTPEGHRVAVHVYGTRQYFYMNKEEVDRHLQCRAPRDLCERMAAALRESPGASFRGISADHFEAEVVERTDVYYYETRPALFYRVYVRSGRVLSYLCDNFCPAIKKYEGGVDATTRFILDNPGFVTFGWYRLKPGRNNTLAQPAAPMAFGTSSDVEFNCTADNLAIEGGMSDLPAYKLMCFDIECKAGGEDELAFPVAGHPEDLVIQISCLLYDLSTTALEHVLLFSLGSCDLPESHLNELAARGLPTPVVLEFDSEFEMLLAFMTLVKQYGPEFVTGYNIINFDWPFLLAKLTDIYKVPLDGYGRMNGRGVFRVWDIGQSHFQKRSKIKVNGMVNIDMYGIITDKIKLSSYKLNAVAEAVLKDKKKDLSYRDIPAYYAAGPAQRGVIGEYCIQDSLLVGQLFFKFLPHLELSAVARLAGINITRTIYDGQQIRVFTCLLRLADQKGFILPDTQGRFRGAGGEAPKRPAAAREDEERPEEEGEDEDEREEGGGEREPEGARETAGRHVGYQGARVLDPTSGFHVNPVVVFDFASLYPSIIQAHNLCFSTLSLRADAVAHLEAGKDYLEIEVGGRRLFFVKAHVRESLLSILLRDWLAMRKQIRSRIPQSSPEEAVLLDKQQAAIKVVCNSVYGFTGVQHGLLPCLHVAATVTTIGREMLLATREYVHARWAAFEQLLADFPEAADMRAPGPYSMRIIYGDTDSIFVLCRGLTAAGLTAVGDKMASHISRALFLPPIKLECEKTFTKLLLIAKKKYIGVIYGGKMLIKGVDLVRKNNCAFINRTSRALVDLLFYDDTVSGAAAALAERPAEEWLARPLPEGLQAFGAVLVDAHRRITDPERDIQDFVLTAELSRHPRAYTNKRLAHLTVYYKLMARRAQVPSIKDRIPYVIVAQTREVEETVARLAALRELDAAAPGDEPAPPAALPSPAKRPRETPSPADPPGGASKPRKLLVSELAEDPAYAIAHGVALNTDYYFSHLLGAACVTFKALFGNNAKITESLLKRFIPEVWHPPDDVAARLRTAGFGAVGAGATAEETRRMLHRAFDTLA
# Method: as §1
# HSV-2 = test: Herpes virus infection of primary monocyte/macrophage (M/M) cell cultures; assay type: cell-based
# Method: Human peripheral blood mononuclear cells (PBMCs) were obtained from the blood of healthy seronegative donors by Ficoll-Hypaque density gradient centrifugation. […] Monocyte/macrophage (M/M) cells were separated by adherence onto plastic. […] African green monkey fibroblastoid kidney (Vero) cells highly sensitive to the cytopathic effect of HSV-2 were grown in RPMI medium supplemented with 10% heat inactivated FCS and were used in infectious virus titration assays.
# Macrophage cultures were then infected with HSV-2 (100 CCID50) in the presence of the test compounds. After 2 hrs virus adsorption, the cultures were extensively washed to remove any residual virus particles. Fresh culture medium and compounds, at the indicated concentrations, were then added to the cultures. […] Appropriate positive (infected but not treated M/M) and mock-infected negative (uninfected and untreated M/M) controls were run for each experiment as well. All assays were performed in triplicate. […] Therefore, the potential inhibitory effect of the compounds on the replication of HSV-2 was evaluated 6 days after infection. The amount of infectious virus in the supernatants was determined by a classical limited dilution assay on Vero cell cultures. The titers of produced virus were calculated according to the Reed and Muench method and expressed as 50% tissue culture infective dose per ml (TCID50/ml).
# The inhibition capacity was expressed in % and calculated considering as value 100 being the virus production in virus-infected untreated cultures.
# HSV-1 and HSV-2 = test: HSV cytopathic effect (CPE) reduction assay, laboratory strains, HEL cell monolayers and PHKs; assay type: cell-based, herpes simplex virus; settings: laboratory HSV strains; HEL cell monolayers and PHKs; read-out: EC50, inhibition of virus-induced cytopathicity
# HSV-2 (G strain) = test: In vivo antiviral activity in HSV-2-infected NMRI athymic nude mice; settings: for protection against viral-induced morbidity and mortality: 1% in DMSO (FIG. 5B)
# Method: (§2) Adult NMRI athymic nude mice (weighing ˜20 g) were scarified on the lumbosacral area over a surface of about 1 cm^2. Mice were inoculated with 5×10^3 PFU of HSV-1 (Kos strain) or 5×10^2 of HSV-2 (G strain) in 50 μL per mouse. […] In each experiment, a group of animals treated with a placebo formulation that was the same as the test formulation without drug was included as a negative control. […] The day of virus inoculation was always considered as day 0. All animal procedures were approved by the K.U. Leuven Animal Care Committee. Development of lesions and mortality were recorded over a one month period. Animals were euthanized when more than 30% loss in body weight or development of paralysis occurred. Survival rates were estimated according to the Kaplan-Meir method and were compared using the log-rank test (Mantel-Cox) test (GraphPad Prism).
# [1] = test system: organotypic raft cultures of keratinocytes; test: Toxic effects in organotypic epithelial raft cultures; assay type: cell-based; settings: highest concentration, 50 μg/ml
# Method: (§3) For the preparation of epidermal equivalents, a collagen matrix solution was made with collagen mixed on ice with 10-fold concentrated HAM's F12 media, 10-fold reconstitution buffer and Swiss 3T3 J2 fibroblasts. One milliliter of the collagen matrix solution was poured into the wells of 24-well microtiter plates. After gel equilibration with 1 ml of growth medium overnight at 37° C., 2.5×10^5 PHK cells were seeded on the top of the gels and maintained submerged for 24-48 hours. The collagen rafts were raised and placed onto stainless-steel grids at the interface between air and liquid culture medium. The growth medium was a mixture of ⅓ HAM F12 and ⅔ Dulbecco's modified Eagle's medium, with the same supplements as used for the Keratinocyte-SFM. Epithelial cells were allowed to stratify, the medium being replaced every 2-3 days. For the evaluation of the antiviral effects of the compounds in the raft system, two series of rafts were run in parallel, one for histological examination and the other one for quantification of viral production by a plaque reduction assay. Rafts were infected with 5,000 PFU of HSV-1 (KOS) or […] strains after 10 days post-lifting and then the medium was replaced by medium containing different dilutions of the compounds. The growth medium containing the different concentrations of the compounds was changed two days later and 3 days later (after 15 days of differentiation), one series of rafts was fixed in 10% buffered formalin, embedded in paraffin and stained with hematoxylin and eosin for histological evaluation. Another series of rafts was used to quantify virus production. For that purpose, each raft was frozen in 3 ml phosphate buffer saline (PBS) and thawed to release the virus from the infected epithelium. Supernatants were clarified by centrifugation at 1,800 rpm and titrated by a plaque assay in HEL cell cultures. Virus production in each raft was then calculated. Two rafts were used for each drug concentration to determine the effects of the compounds on virus yield.
# HSV-1 (Kos strain) = test: In vivo antiviral activity in HSV-1-infected NMRI athymic nude mice
# Method: as §2
# HSV-2 (G) = test: Organotypic epithelial raft cultures infected with HSV-2; assay type: cell-based; settings: for activity against HSV replication in rafts compared with tenofovir: HSV-1 and HSV-2, FIGS. 3A and 3B; for concentration resulting in complete protection of the epithelial tissue: HSV-2, data not shown
# Method: as §3
# HSV-1 (KOS) = test: Organotypic epithelial raft cultures infected with HSV-1; assay type: cell-based; settings: reference HSV-1 laboratory strain
# Method: as §3
# [2] = test system: HSV-1 and HSV-2 clinical isolates; test: organism not typed; assay type: cell-based, herpes simplex virus; settings: for antiherpetic activity against thymidine kinase-deficient strains compared with wild-type: clinical isolates, HEL
# HSV-2 strain G (HSV-2G) = test: Human ex vivo tonsillar tissue, HSV DNA release by real-time PCR; assay type: cell-based; settings: 33 μg/ml; tissues from two donors; data not shown
# Method: For each experimental condition 16 tissue blocks were immersed in 500 μl of a HSV-2 (strain G) suspension for 2 hours at 37° C., washed three times with PBS and then placed on the gelfoam rafts. Tenofovir was added during the infection and replenished at each culture medium change. Herpes simplex viral replication was evaluated by the release of viral DNA into the culture medium as measured by quantitative real-time PCR (17). HIV-1 replication was evaluated by the release of p24 capsid antigen using a bead-based assay (18).
smiles,measurement,setting,value
"C[C@H](Cn1cnc2c(N)ncnc21)OCP(=O)(O)OP(=O)(O)OP(=O)(O)O [Tenofovir-DP, (R)-(1-(6-amino-9H-purin-9-yl)propan-2-yloxy)methylphosphonic diphosphoric anhydride]",IC50,HIV-1 RT,4300 nM
same,IC50,HSV-1 DNA polymerase,1300 nM
"Nc1nc2c(ncn2COCCO)c(=O)[nH]1 [acyclovir, 9-(2-hydroxyethoxymethyl)guanine]",virus released in the supernatants and visible cytopathicity,"HSV-2; concentrations equal to, or higher than 0.008 μg/ml",full suppression of virus released in the supernatants and no visible cytopathicity
"Nc1ncnc2c1ncn2CCOCP(=O)(O)O [adefovir, 9-[2-(phosphonylmethoxyethyl)adenine]]",EC50,HSV-1 and HSV-2,3.6 to 13 µg/mL
same,HSV titer in supernatants,HSV-2; 0.4 μg/ml,5.4×10^3 TCID50/ml
same,visible CPE,HSV-2; 0.4 μg/ml,45%
same,HSV titer in supernatants,HSV-2; 1 μg/ml,8.5×10^2 TCID50/ml
same,visible CPE,HSV-2; 1 μg/ml,5%
same,viral particles in the supernatants and visible CPE,HSV-2; drug concentrations between 500 and 5 μg/ml,neither viral particles in the supernatants nor visible CPE were found
same,protection against viral-induced morbidity and mortality,HSV-2 (G strain),80%
same,appearance of lesions and subsequent death,HSV-2 (G strain); formulated in the gel at 1%,significant delay in the appearance of lesions and subsequent death
same,toxic effects (increase in number of dead cells or alteration of differentiation),[1],No toxic effects
same,survival,HSV-1 (Kos strain); 1% in DMSO,80%
same,skin lesions in mice that died,HSV-1 (Kos strain); 1% in DMSO formulation,died without developing skin lesions
same,survival,"HSV-1 (Kos strain); 1% in gel, data not shown",100%
same,activity against HSV replication in rafts compared with tenofovir,HSV-2 (G),more active against HSV replication than tenofovir
same,concentration resulting in complete protection of the epithelial tissue,HSV-2 (G),≥ 2 µg/mL
same,concentration giving complete protection from virus-induced cytopathic effect,HSV-1 (KOS),2 µg/mL
"O=c1[nH]c(=O)n([C@H]2C[C@H](O)[C@@H](CO)O2)cc1/C=C/Br [brivudin, RE)-5-(2-bromovinyl)-1(-D-2′-deoxyribofuranos-1-yl-uracil]",antiherpetic activity against thymidine kinase-deficient strains compared with wild-type,[2],lost their antiherpetic activity
"Nc1ccn(C[C@@H](CO)OCP(=O)(O)O)c(=O)n1 [cidofovir, (S)-1-(3-hydroxy-2-phosphonylmethoxypropyl)cytosine]",EC50,HSV-1 and HSV-2,0.63 to 4.4 µg/mL
same,EC50,"[2]; Fibroblast, read-out: mean EC50 values (range over isolate groups)",0.35 to 0.67 µg/mL
same,protection against viral-induced morbidity and mortality,HSV-2 (G strain),100%
same,protection against HSV-2-induced morbidity and mortality,HSV-2 (G strain); formulated in gel,80%
same,toxic effects (increase in number of dead cells or alteration of differentiation),[1],No toxic effects
same,protection against virus-induced morbidity and mortality,HSV-1 (Kos strain); either the DMSO or the gel formulation,completely protected
same,activity against HSV replication in rafts compared with tenofovir,HSV-2 (G),more active against HSV replication than tenofovir
same,concentration resulting in complete protection of the epithelial tissue,HSV-2 (G),0.2 µg/mL
same,concentration giving complete protection from virus-induced cytopathic effect,HSV-1 (KOS),≥ 0.5 µg/mL
"Nc1nc2c(ncn2COC(CO)CO)c(=O)[nH]1 [ganciclovir, 9-(1,3-dihydroxy-2-propoxymethyl)guanine]",antiherpetic activity against thymidine kinase-deficient strains compared with wild-type,[2],lost their antiherpetic activity
Nc1ccn([C@@H]2CS[C@H](CO)O2)c(=O)n1 [lamivudine],effect on HSV-2G replication compared to untreated donor-matched tissues,HSV-2 strain G (HSV-2G),no effect
"Nc1nc2c(ncn2CCC(CO)CO)c(=O)[nH]1 [penciclovir, 9-(4-hydroxy-3-hydroxymethylbut-1-yl)guanine]",antiherpetic activity against thymidine kinase-deficient strains compared with wild-type,[2],lost their antiherpetic activity
